Experimental data: patent US8067611B2, “Substituted 1-(thiazolyl)-and 1-(isothiazolyl)pyrazol-4-ylacetic acids, processes for their preparation and their use as herbicides and plant growth regulators” (Bayer CropScience AG, priority 2008, dated 2011)

Key:
Format in all cases: in vivo
[1] = tested on: Alopecurus myosuroides; experiment: Pre-emergence herbicidal effect, greenhouse pot test; conditions: 1.0 kg or 0.32 kg of active substance per hectare, 100% = plants have died
Excerpt: (§1) Seeds of monocotyledonous or dicotyledonous weed plants or crop plants are planted in wood-fiber pots in sandy loam and covered with soil. The compounds (I) according to the invention, formulated in the form of wettable powders (WP), are then applied as aqueous suspension or emulsion at a water application rate of 600 I/ha (converted) with the addition of 0.2% of wetting agent to the surface of the covering soil.
(§2) Following the treatment, the pots are placed in a greenhouse and kept under good growth conditions for the test plants. After about 3 weeks, the effect of the preparations is scored visually in comparison with untreated controls (herbicidal effect in percent (%): 100% effect=plants have died, 0% effect=as control plants).

[2] = tested on: Avena fatua; experiment: as above; conditions: 1.0 kg or 0.32 kg of active substance per hectare, 100% = plants have died
Excerpt: as §1, §2

[3] = tested on: Echinochloa crus galli; experiment: as above; conditions: 1.0 kg or 0.32 kg of active substance per hectare, 100% = plants have died
Excerpt: as §1, §2

[4] = tested on: Setaria viridis; experiment: as above; conditions: 1.0 kg or 0.32 kg of active substance per hectare, 100% = plants have died
Excerpt: as §1, §2

[5] = tested on: harmful plants; experiment: as above; conditions: application rate of 1 kg or less of active substance per hectare, scored after about 3 weeks
Excerpt: as §1, §2

[6] = tested on: weed-grasses and broad-leaved weeds; experiment: Post-emergence herbicidal effect, greenhouse pot test; conditions: application rate of 1 kg and less of active substance per hectare, scored after 3 weeks
Experimental: Seeds of monocotyledonous or dicotyledonous weed plants or crop plants are planted in wood-fiber pots in sandy loam, covered with soil and grown in a greenhouse under good growth conditions. 2 to 3 weeks after sowing, the test plants are treated in the one-leaf stage. The compounds according to the invention, formulated in the form of wettable powders (WP), are then sprayed onto the green plant parts as aqueous suspension or emulsion at a water application rate of 600 I/ha (converted) with the addition of 0.2% of wetting agent. After 3 weeks' standing time of the test plants in the greenhouse under optimum growth conditions, the effect of the preparations is scored visually in comparison with untreated controls (herbicidal effect in percent (%): 100% effect=plants have died, 0% effect=as control plants).

Compound | herbicidal activity [1] [%] | herbicidal activity [2] [%] | herbicidal activity [3] [%] | herbicidal activity [4] [%] | herbicidal pre-emergence activity against a number of harmful plants [5] | post-emergence activity against a broad spectrum of weed-grasses and broad-leaved weeds [6]
COC(=O)Cc1c(C)nn(-c2cncs2)c1-c1cnc(C)cn1 [Compound 8-217] | ≥ 80 | ≥ 80 | ≥ 80 | ≥ 80 | good herbicidal pre-emergence activity | good post-emergence activity
COC(=O)Cc1c(C)nn(-c2cncs2)c1-c1ncc(Br)cn1 [Compound 8-230] | – | – | – | – | good herbicidal pre-emergence activity | good post-emergence activity
COC(=O)Cc1c(C)nn(-c2cncs2)c1-c1ccc2ccccc2n1 [Compound 8-239] | – | – | – | – | good herbicidal pre-emergence activity | good post-emergence activity
COC(=O)Cc1c(C)nn(-c2cncs2)c1-c1cc2ccccc2cn1 [Compound 8-240] | – | – | – | – | good herbicidal pre-emergence activity | good post-emergence activity
CCOC(=O)c1ncsc1-n1nc(C)c(CC(=O)OC)c1-c1ccccn1 [Compound 8-241, Ethyl 5-[4-(2-methoxy-2-oxoethyl)-3-methyl-5-(pyridin-2-yl)-1H-pyrazol-1-yl]-1,3-thiazole-4-carboxylate] | – | – | – | – | good herbicidal pre-emergence activity | good post-emergence activity
COC(=O)Cc1c(C)nn(-c2cncs2)c1-c1ccc(-c2ccccc2)cc1 [Compound 8-276] | – | – | – | – | good herbicidal pre-emergence activity | good post-emergence activity
COC(=O)Cc1c(C)nn(-c2cncs2)c1-c1cc(C)c(Cl)cn1 [Compound 8-294] | – | – | – | – | good herbicidal pre-emergence activity | good post-emergence activity
CCOC(=O)Cc1c(C)nn(-c2cncs2)c1-c1ccc(Cl)cc1 [Compound 9-4] | – | – | – | – | good herbicidal pre-emergence activity | good post-emergence activity
Cc1nn(-c2cncs2)c(-c2ccc(Cl)cc2)c1CC(=O)OCC1CC1 [Compound 9-122] | – | – | – | – | good herbicidal pre-emergence activity | good post-emergence activity
